# Test results from patent US7745465B2, “Method of enhancing cellular production of molecular chaperone, hydroxylamine derivatives useful for enhancing the chaperone production and the preparation thereof” (CytRx Corporation, priority 1995, dated 2010).
# Tests used:
# hsp72 gene = experiment: Northern blot of hsp72 mRNA in rat heart ventricles; type: in vivo
# Description: Experiments were carried out in SPRD male rats. Animals were anaesthetized with Nembutal in a dose of 60 mg/kg/i.p. Body temperature of the rats were maintained with an infra lamp placed over the abdomen and the rectal temperature was measured. After a 25-40 minute period the temperature of the rats increased to 42.0-42.2° C. and this temperature was maintained for 15 minutes. After a recovery period (2 hrs), tissue samples were collected from the left and right ventricles.
# Experiments were carried out in SPRD male rats. The animals were anaesthetized with Nembutal in a dose of 60 mg/kg/i.p. After opening the chest and pericardium, the LAD coronary artery was occluded for 5 minutes and then the incidence and duration of ventricular tachycardia and fibrillation in the reperfusion period (10 minutes) were investigated. Tissue samples were collected from the left and right ventricles.
# Total RNA was extracted using RN Agents kit (Promega) according to the manufacturer's instructions (Protocols and Applications Guide, 2nd edition, 1991, Promega Corporation). […]
# Prehybridizations were carried out at 65° C. in H-buffer (0.25M Na2HPO4, pH 7.2, 7% SDS) for 15 minutes. […] The membrane was washed with 20 mM Na2HPO4, pH 7.2, 5% SDS (65 C; 2×15 min.) and evaluated by autoradiography. […]
# HaCaT cells = experiment: Protection of HaCaT keratinocytes against 48° C. heat exposure (viability); type: cell-based, human
# Excerpt: HaCaT cell line is a spontaneously immortalized, ancuploid human keratinocyte cell line derived from normal human adult skin (Boukamp et al., J. Cell Biol. 106:761-771 (1988)), HaCaT is a cell line with full epidermal differentiation capacity, with normal keratinization and with nontumorogenic character. This rapidly multiplying keratinocyte line with high ditharnol sensitivity is also characterized by the presence of steroid receptors. HaCaT cells (4×10^5 cells per Petri-dish with a diameter of 35 mm) were seeded and grown in DMEM supplemented with 5% fetal calf serum (Gibco, Cat. No. 011-6290H) under a humidified atmosphere of 5% CO2 at 37° C. 24 hours after plating, the cultures were rinsed with PBS and treated by heat or light.
# The confluent cultures of the cells were exposed to heat (42, 44, 46, 47, 48° C.) or UV light (UVA I, 2, 4, 6 J/cm^2). Heat exposure was provided in circulating water baths. As a UV light source, Waldmann PUVA 4000 was used with an energy spectrum of the final output between 320 an 390 nm, peaking at 365 nm. The energy output was monitored by an IL-1700 radiometer equipped with UVA and UVB sensor.
# The morphology of the cells was monitored using phase contrast microscopy (Opton Axioplan Microscope, with Plan-Apochromat Ph phase contrast objectives). […]
# TNF treated WEHI 164 = experiment: Protection of cells against cytotoxic cytokines (TNF); type: cell-based; details: WEHI 164 (and other mammalian) cells
# Hsp72 [1] = experiment: hsp72 level of skin biopsy samples of STZ-diabetic rats (Western blot); type: in vivo, rat; details: 4% containing cream, topical
# Description: (ii) Streptozotocin-induced diabetic (STZ) rats with partial-to full thickness thermal wounds created on bilateral thoracic depilated skin by electroheating probe (3 mm of diameter; 60° C.; for 30, 60 and 90 sec.), treated by topical application of 1%, 2% or 4% N-[2-hydroxy-3-(1-piperidinyl)propoxy]-3-piridinecarboximidoyl chloride maleate containing cream or vehicle were used to determine the wound healing in form of self-control, side to side comparison. Wound closure was recorded photographically and using the digital epiluminescence microscopic technique. Wound areas were measured by planimetry 48 h and 21 days after heat injury. Level of hsp72 of skin biopsy samples was determined using Western blot analysis.
# HSP72 [2] = experiment: Heat stress induced hsp72 level in L-929 mouse fibroblast cells; type: cell-based; details: L-929 cells, 10^−5 M, treatment preceded heat stress
# Description: From the applied cells the 3T3 and L-929 mouse fibroblasts were cultured in MEM medium and grew in monolayer, the U-937 human leukemia cells were maintained in RPMI-1640 medium, in suspension culture, while the HeLa human epithelial cells were cultured in DMEM medium and in monolayer form. Cell cultures were maintained as described in example 6.2 (a) with the difference that cells were cultured in the above mentioned culture mediums.
# Experiments were carried out applying stress before and after the drug treatment. Stress was provoked by heat, by chemical agent, HgCl2 treatment. The test compounds were applied in the treatments at the 10^−5 M concentration.
# The experiments on 3T3 cell applying heat stress were performed as described in the 6.2. (c) point of example 6, with the difference that stress was induced by a 30 min. exposure at 43° C. temperature and treatment with the test compounds was performed 15 min. before or 100 min. after the heat stress.
# Experiments using heat shock on U-937 leukemia and L-929 mouse fibroblast cells were carried out similarly as described above, but drug treatments in these tests always preceded the heat stress. The compound N-[2-hydroxy-3-(1-piperidinyl)-propoxy]-3-pyridine-carboximidoyl chloride maleate was tested at the 10^−5 M concentration under these experimental conditions.
structure (smiles),measurement,setting,value
O=C(O)/C=C\C(=O)O.OC(CON=C(Cl)c1cccnc1)CN1CCCCC1 (stereo not shown) [N-[2-hydroxy-3-(1-piperidinyl)-propoxy]3-pyridinecarboximidoyl chloride maleate],expression of hsp72 gene in heart muscle preparations,"hsp72 gene; 100 mg/kg p.o., ischemia",highly increased expression of hsp72 gene
same,activation of the hsp72 gene,"hsp72 gene; in the absence of stress, compound alone",unable to activate the hsp72 gene
same,increase in viability,"HaCaT cells; combined treatment with 42° C. and compound, 24 hours after 48° C.",140%
same,cell viability increased to,"HaCaT cells; pre-treatment 5×10^-5 M for one hour, 24 hours after the 48° C. treatment",84%
same,survival rate of TNF treated cells,TNF treated WEHI 164,increased the survival rate
same,hsp72 level in skin biopsy samples compared to vehicle control,Hsp72 [1],elevated the hsp72 level
same,increase in the heat stress induced hsp72 level,HSP72 [2],more than 50%
